Laboratory results: patent US20260335279A1, “METHODS OF TREATING ISCHEMIA-REPERFUSION INJURIES” (University of Cincinnati, priority 2022, published 2026)

Experiments:
[1] = tested on: myocardial ischemia-reperfusion injury in mice; assay: 2D echocardiography (cardiac function) in murine myocardial ischemia-reperfusion injury; assay type: in vivo, mouse (C57BL/6); conditions: 30 min ischemia
Experimental: Cardiac function was assessed by transthoracic echocardiography using the VisualSonics Vevo F2 system (VisualSonics, Toronto, ON). Sedation was induced by 3% isoflurane and maintained at 0.5% isoflurane during the procedure, during which the animals were placed on a heated table under a lamp at approximately 37 °C. Parasternal long axis (PSLAX) and short axis (SAX) images were recorded and then analyzed on a separate workstation with VevoLab software (Vevo 2100, v1.6, Visualsonic, Toronto, Canada). From the M-mode images, left ventricular cavity size for systole and diastole (LV dia;s, LV dia;d, LV Vol;s and LV Vol;d) were measured. Heart rate (HR), stroke volume (SV), and the echocardiographic calculation for fractional shortening (FS), ejection fraction (EF) and cardiac output (CO) were obtained using the Vevo software. Treatment and control groups were analyzed on the same day by the same technician in order to minimize variation. For VevoStrain analysis, B-mode images of 300 frames at greater than 200 frames/second were used.
The myocardial ischemia/reperfusion surgical protocol was applied as follows. Mice were anesthetized with 2% isoflurane inhalation until anesthesia was achieved. […] The mouse was then monitored during the recovery period, which was generally completed within 3 to 5 minutes. […]

NOX4 = NOX4 mRNA in myocardium after I/R (real-time PCR); assay type: in vivo, mouse (C57BL/6); conditions: ML264 treatment; 30 min ischemia, 2 h reperfusion
Experimental: The myocardial ischemia/reperfusion surgical protocol was applied as follows. Mice were anesthetized with 2% isoflurane inhalation until anesthesia was achieved. The animals' body temperature was maintained at 37 °C throughout the surgical procedure using a heating pad. A tracheal tube was placed via tracheal intubation and the respiration rate was set at 150 strokes/min with a tidal volume of 200 μL, using Minivent ventilator for mice (Model 845, Harvard Apparatus). A 1.2 cm incision was made over the left chest. After retraction of the pectoral major and minor muscles, the fourth intercostal space was exposed. […] The mouse was then monitored during the recovery period, which was generally completed within 3 to 5 minutes. […]
Total RNA was purified from heart tissue using the TRIzol reagent according to the instructions of the manufacturer (ThermoFischer Scientific, Cat. No.: 15596018). cDNA synthesis was performed using the Applied Biosystems High Capacity cDNA Reverse Transcription Kit (ThermoFischer Scientific, Cat. No.: 4368814) from 500 ng RNA, which had been treated with DNAase I (ThermoFischer Scientific, Cat. No.: 18068015). Quantitative real-time PCR was performed with the SYBR Select Master Mix (ThermoFischer Scientific, Cat. No.: 4472903) using the manufacturer's recommendations. […]

Structure (SMILES): CN(C(=O)CNC(=O)/C=C/c1cccc(Cl)c1)C1CCS(=O)(=O)CC1 [ML264]
- ejection fraction (4 weeks) ([1]; 4 weeks reperfusion, two doses of ML264 at early reperfusion, vs IR vehicle): significant preservation
- ejection fraction ([1]; 24 h reperfusion, 25 mg/kg/12 h intraperitoneal, first dose 5 min before reopening of coronary artery, vs vehicle): significant preservation
- NOX4 mRNA levels (NOX4): suppressed
